Bounds are passed on as bounds.

Chain of cAMP-specific 3',5'-cyclic phosphodiesterase 4A (P27815 whole entry): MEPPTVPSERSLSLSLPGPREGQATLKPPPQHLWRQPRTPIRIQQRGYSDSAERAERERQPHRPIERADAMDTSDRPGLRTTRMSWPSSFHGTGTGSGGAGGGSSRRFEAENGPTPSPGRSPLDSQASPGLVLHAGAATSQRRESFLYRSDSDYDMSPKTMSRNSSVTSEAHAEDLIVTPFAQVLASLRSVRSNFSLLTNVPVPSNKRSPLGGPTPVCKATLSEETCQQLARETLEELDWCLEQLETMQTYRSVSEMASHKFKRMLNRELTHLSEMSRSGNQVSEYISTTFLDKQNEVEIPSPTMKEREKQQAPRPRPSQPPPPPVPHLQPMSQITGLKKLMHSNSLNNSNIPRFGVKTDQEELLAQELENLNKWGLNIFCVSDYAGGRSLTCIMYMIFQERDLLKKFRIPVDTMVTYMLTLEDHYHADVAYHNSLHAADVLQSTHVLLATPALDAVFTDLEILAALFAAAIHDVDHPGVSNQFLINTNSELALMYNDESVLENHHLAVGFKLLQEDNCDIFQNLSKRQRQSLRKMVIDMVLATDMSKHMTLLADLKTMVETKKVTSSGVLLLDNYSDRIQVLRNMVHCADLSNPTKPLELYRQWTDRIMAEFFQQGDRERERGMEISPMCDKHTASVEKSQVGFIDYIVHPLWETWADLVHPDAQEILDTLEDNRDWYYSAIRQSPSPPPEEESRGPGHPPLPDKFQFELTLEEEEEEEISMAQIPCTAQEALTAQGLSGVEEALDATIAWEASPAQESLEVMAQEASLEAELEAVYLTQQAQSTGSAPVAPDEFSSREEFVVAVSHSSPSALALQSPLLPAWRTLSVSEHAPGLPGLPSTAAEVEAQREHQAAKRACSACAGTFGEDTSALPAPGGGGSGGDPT

The first assay addresses cAMP-specific 3',5'-cyclic phosphodiesterase 4A (Homo sapiens, UniProt P27815). In words: PDE4A Inhibition Assay.
Conditions: not given
Here is the method:
Inhibition of PDE4A was performed using IMAP technology (Molecular Devices, CA). PDE4A1A mixture was dispensed into 1536-well black/solid bottom assay plates (Greiner Bio-One North America, NC) using a Flying Reagent Dispenser (Aurora Discovery, CA). The plates were centrifuged at 1000 rpm for 30s and compound was transferred to the assay plate using a Kalypsys pin tool. After incubation, cAMP was dispensed into the plates to initiate the reaction. IMAP binding reagent was then added to the assay plate after the reaction.
`COc1ccc(C2=Nn3c(nnc3-c3ccc(OC)cc3)SC2)cc1` returned an IC50 of 8.4 µM.
Still for that read-out and setting: the value for `COc1cccc(-c2nnc3n2N=C(c2cc(OC)ccc2OC)CS3)c1` was 12.6 µM; that for `COc1cccc(C2=Nn3c(nnc3-c3ccccc3C)SC2)c1` [triazolothiadiazine, 7I] was 3.2 µM.
`CCOc1ccccc1-c1nnc2n1N=C(c1cccc(OC)c1)CS2` [triazolothiadiazine, 7J] yielded an IC50 of 11.2 µM.
Compound `COc1cccc(C2=Nn3c(nnc3-c3ccccc3O)SC2)c1` [triazolothiadiazine, 7K] gave an IC50 of 14.1 µM.
Compound `COc1ccc(C2=Nn3c(nnc3-c3ccccc3OC)SC2)cc1` [triazolothiadiazine, 8A] showed a concentration for half-maximal inhibition (IC50) above 20 µM.
The same measure, in the same setting: for `COc1ccc(C2=Nn3c(nnc3-c3cccc(OC)c3)SC2)cc1` [triazolothiadiazine, 8B] the value was 12.6 µM; for `COc1ccc(C2=Nn3c(nnc3-c3cccc(OC)c3OC)SC2)cc1` [triazolothiadiazine, 8D], above 20 µM.
Consider `COc1ccc(C2=Nn3c(nnc3-c3ccc(OC)cc3OC)SC2)cc1` [triazolothiadiazine, 8E], for which the IC50 was above 20 µM.
Still for that read-out and setting: for `COc1ccc(C2=Nn3c(nnc3-c3cc(OC)ccc3OC)SC2)cc1` [triazolothiadiazine, 8F] the value was 1.7 µM.
Same read-out and setting: the value for `COc1ccc(C2=Nn3c(nnc3-c3ccc(OC)c(OC)c3)SC2)cc1` [triazolothiadiazine, 8G] was 7.5 µM; that for `COc1ccc(C2=Nn3c(nnc3-c3cc(OC)cc(OC)c3)SC2)cc1` [triazolothiadiazine, 8H] was 9.5 µM.
The compound `COc1ccc(C2=Nn3c(nnc3-c3ccccc3C)SC2)cc1` [triazolothiadiazine, 8I] had a 50% inhibitory concentration (IC50) of 12.5 µM.
As for `CCOc1ccccc1-c1nnc2n1N=C(c1ccc(OC)cc1)CS2` [triazolothiadiazine, 8J], 4.5 µM corresponded to half-maximal inhibition (IC50).
For `COc1ccc(C2=Nn3c(nnc3-c3ccccc3O)SC2)cc1` [triazolothiadiazine, 8K], the IC50 is 8.4 µM.
The same measure, in the same setting: the value for `COc1ccc(C2=Nn3c(nnc3-c3ccccc3OC)SC2)c(OC)c1` [triazolothiadiazine, 9A] was 15 µM; that for `COc1cccc(-c2nnc3n2N=C(c2ccc(OC)cc2OC)CS3)c1` [triazolothiadiazine, 9B] was 14.1 µM.
On the same count and under the same terms, for `COc1ccc(-c2nnc3n2N=C(c2ccc(OC)cc2OC)CS3)cc1` [triazolothiadiazine, 9C] the value was 13.4 µM.
`COc1ccc(C2=Nn3c(nnc3-c3cccc(OC)c3OC)SC2)c(OC)c1` [triazolothiadiazine, 9D] gave an IC50 above 20 µM.
Same read-out and setting: for `COc1ccc(C2=Nn3c(nnc3-c3ccc(OC)cc3OC)SC2)c(OC)c1` [triazolothiadiazine, 9E] the value was above 20 µM; for `COc1ccc(C2=Nn3c(nnc3-c3cc(OC)ccc3OC)SC2)c(OC)c1` [triazolothiadiazine, 9F], 7.5 µM.
Regarding `COc1ccc(C2=Nn3c(nnc3-c3ccc(OC)c(OC)c3)SC2)c(OC)c1` [triazolothiadiazine, 9G], it took 6.7 µM to reach half-maximal inhibition (IC50).
Same read-out and setting: the value for `COc1cc(OC)cc(-c2nnc3n2N=C(c2ccc(OC)cc2OC)CS3)c1` [triazolothiadiazine, 9H] was above 20 µM; that for `COc1ccc(C2=Nn3c(nnc3-c3ccccc3C)SC2)c(OC)c1` [triazolothiadiazine, 9I] was above 20 µM; that for `CCOc1ccccc1-c1nnc2n1N=C(c1ccc(OC)cc1OC)CS2` [triazolothiadiazine, 9J] was above 20 µM.
`COc1ccc(C2=Nn3c(nnc3-c3ccccc3O)SC2)c(OC)c1` [triazolothiadiazine, 9K] had an IC50 above 20 µM.
`COc1ccc(OC)c(C2=Nn3c(nnc3-c3ccccc3OC)SC2)c1` [triazolothiadiazine, 10A]: the IC50 came to 8.9 µM.
Same read-out and setting: for `COc1ccc(-c2nnc3n2N=C(c2cc(OC)ccc2OC)CS3)cc1` [triazolothiadiazine, 10C] the value was 10.1 µM.
Still for that read-out and setting: for `COc1ccc(OC)c(C2=Nn3c(nnc3-c3cccc(OC)c3OC)SC2)c1` [triazolothiadiazine, 10D] the value was 11.9 µM; for `COc1ccc(-c2nnc3n2N=C(c2cc(OC)ccc2OC)CS3)c(OC)c1` [triazolothiadiazine, 10E], 5.3 µM; for `COc1ccc(OC)c(C2=Nn3c(nnc3-c3cc(OC)ccc3OC)SC2)c1` [triazolothiadiazine, 10F], 11.9 µM.
Compound `COc1ccc(OC)c(C2=Nn3c(nnc3-c3ccc(OC)c(OC)c3)SC2)c1` [triazolothiadiazine, 10G] yielded a 50% inhibitory concentration (IC50) of 6.9 µM.
`COc1cc(OC)cc(-c2nnc3n2N=C(c2cc(OC)ccc2OC)CS3)c1` [triazolothiadiazine, 10H] displayed an IC50 of 12.7 µM.
Consider `COc1ccc(OC)c(C2=Nn3c(nnc3-c3ccccc3C)SC2)c1` [triazolothiadiazine, 10I], for which the IC50 stood at 6.3 µM.
Same read-out and setting: for `CCOc1ccccc1-c1nnc2n1N=C(c1cc(OC)ccc1OC)CS2` [triazolothiadiazine, 10J] the value was 13.4 µM.
Still for that read-out and setting: for `COc1ccc(OC)c(C2=Nn3c(nnc3-c3ccccc3O)SC2)c1` [triazolothiadiazine, 10K] the value was above 20 µM; for `COc1ccccc1-c1nnc2n1N=C(c1c(OC)cccc1OC)CS2` [triazolothiadiazine, 11A], above 20 µM; for `COc1cccc(-c2nnc3n2N=C(c2c(OC)cccc2OC)CS3)c1` [triazolothiadiazine, 11B], above 20 µM.
With `COc1ccc(-c2nnc3n2N=C(c2c(OC)cccc2OC)CS3)cc1` [triazolothiadiazine, 11C], half-maximal inhibition (IC50) was put at 19.7 µM.
`COc1cccc(-c2nnc3n2N=C(c2c(OC)cccc2OC)CS3)c1OC` [triazolothiadiazine, 11D] yielded an IC50 above 20 µM.
Same read-out and setting: for `COc1ccc(-c2nnc3n2N=C(c2c(OC)cccc2OC)CS3)c(OC)c1` [triazolothiadiazine, 11E] the value was above 20 µM; for `COc1ccc(OC)c(-c2nnc3n2N=C(c2c(OC)cccc2OC)CS3)c1` [triazolothiadiazine, 11F], above 20 µM.
The same measure, in the same setting: the value for `COc1ccc(-c2nnc3n2N=C(c2c(OC)cccc2OC)CS3)cc1OC` [triazolothiadiazine, 11G] was 14.1 µM; that for `COc1cc(OC)cc(-c2nnc3n2N=C(c2c(OC)cccc2OC)CS3)c1` [triazolothiadiazine, 11H] was 19.6 µM.
The same measure, in the same setting: for `COc1cccc(OC)c1C1=Nn2c(nnc2-c2ccccc2C)SC1` [triazolothiadiazine, 11I] the value was 14.1 µM; for `CCOc1ccccc1-c1nnc2n1N=C(c1c(OC)cccc1OC)CS2` [triazolothiadiazine, 11J], above 20 µM.

Staying with this assay, now noted: pH 7.2; 22 °C.
As for `COc1cccc(-c2nnc3n2N=C(c2ccc(OC)c(OC)c2)CS3)c1` [triazolothiadiazine, 5B], the IC50 amounted to 0.126 µM.
With `COc1ccc(-c2nnc3n2N=C(c2ccc(OC)c(OC)c2)CS3)cc1` [triazolothiadiazine, 5C], the IC50 was 0.0889 µM.
Same read-out and setting: the value for `COc1ccc(-c2nnc3n2N=C(c2ccc(OC)c(OC)c2)CS3)c(OC)c1` [triazolothiadiazine, 5E] was 0.079 µM.
Same read-out and setting: the value for `COc1ccc(C2=Nn3c(nnc3-c3ccc(OC)c(OC)c3)SC2)cc1OC` [triazolothiadiazine, 5G] was 0.177 µM.
On the same count and under the same terms, the value for `COc1cc(OC)cc(-c2nnc3n2N=C(c2ccc(OC)c(OC)c2)CS3)c1` [triazolothiadiazine, 5H] was 0.05 µM; that for `COc1ccccc1C1=Nn2c(nnc2-c2ccccc2OC)SC1` [triazolothiadiazine, 6A] was 20 µM; that for `COc1cccc(-c2nnc3n2N=C(c2ccccc2OC)CS3)c1` [triazolothiadiazine, 6B] was 13.4 µM.
`COc1ccc(-c2nnc3n2N=C(c2ccccc2OC)CS3)cc1` [triazolothiadiazine, 6C] registered an IC50 of 14.1 µM.
Regarding `COc1ccccc1C1=Nn2c(nnc2-c2cccc(OC)c2OC)SC1` [triazolothiadiazine, 6D], the IC50 was above 20 µM.
Still for that read-out and setting: the value for `COc1ccc(-c2nnc3n2N=C(c2ccccc2OC)CS3)c(OC)c1` [triazolothiadiazine, 6E] was 19.7 µM; that for `COc1ccc(OC)c(-c2nnc3n2N=C(c2ccccc2OC)CS3)c1` [triazolothiadiazine, 6F] was 19.6 µM.
Same read-out and setting: for `COc1ccc(-c2nnc3n2N=C(c2ccccc2OC)CS3)cc1OC` [triazolothiadiazine, 6G] the value was 8.9 µM; for `COc1cc(OC)cc(-c2nnc3n2N=C(c2ccccc2OC)CS3)c1` [triazolothiadiazine, 6H], 13.4 µM.
The same measure, in the same setting: the value for `COc1ccccc1C1=Nn2c(nnc2-c2ccccc2C)SC1` [triazolothiadiazine, 6I] was 14.1 µM.
For the compound `CCOc1ccccc1-c1nnc2n1N=C(c1ccccc1OC)CS2` [triazolothiadiazine, 6J], the IC50 is above 20 µM.
`COc1ccccc1C1=Nn2c(nnc2-c2ccccc2O)SC1` [triazolothiadiazine, 6K] had an IC50 above 20 µM.
Compound `COc1cccc(C2=Nn3c(nnc3-c3ccccc3OC)SC2)c1` [triazolothiadiazine, 7A] had an IC50 of 12 µM.
In the case of `COc1cccc(C2=Nn3c(nnc3-c3cccc(OC)c3)SC2)c1` [triazolothiadiazine, 7B], it took 12.6 µM to reach half-maximal inhibition (IC50).
With `COc1ccc(-c2nnc3n2N=C(c2cccc(OC)c2)CS3)cc1` [triazolothiadiazine, 7C], the IC50 is 8.4 µM.
`COc1cccc(C2=Nn3c(nnc3-c3cccc(OC)c3OC)SC2)c1` [triazolothiadiazine, 7D]: the IC50 is above 20 µM.
On the same count and under the same terms, for `COc1cccc(C2=Nn3c(nnc3-c3ccc(OC)cc3OC)SC2)c1` [triazolothiadiazine, 7E] the value was 13.4 µM.
Same read-out and setting: for `COc1cccc(C2=Nn3c(nnc3-c3cc(OC)ccc3OC)SC2)c1` [triazolothiadiazine, 7F] the value was 8 µM; for `COc1cccc(C2=Nn3c(nnc3-c3ccc(OC)c(OC)c3)SC2)c1` [triazolothiadiazine, 7G], 9 µM; for `COc1cccc(C2=Nn3c(nnc3-c3cc(OC)cc(OC)c3)SC2)c1` [triazolothiadiazine, 7H], 13.4 µM.

(Values after BindingDB's records for doi:10.1016/j.bmcl.2008.01.028 (Nih, 2008).)
